Here are results for 11 compounds from paper PMC9116130 (Biochemical pharmacology, 2020).

One assay deals with rNaV1.2 (Rattus norvegicus, UniProt P04775). In words: Two-electrode voltage-clamp on Xenopus laevis oocytes expressing NaV1.2. To be noted: for inhibition at 100 µM: read-out: Maximum % inhibition NaV1.2, peptide at 100 μM. Background: Two-electrode voltage clamp is typically applied to oocytes expressing channels or transporters.
The target in a further assay is rNaV1.4 (Rattus norvegicus, UniProt P15390). Kind of assay: Two-electrode voltage-clamp on Xenopus laevis oocytes expressing NaV1.4. To be noted: for inhibition at 100 µM: read-out: Maximum % inhibition NaV1.4, peptide at 100 μM; for Maximum % inhibition NaV1.4: peptide at 100 μM, 100 µM.
The target of another assay is hNaV1.5 (Homo sapiens, UniProt Q14524). In words: Two-electrode voltage-clamp on Xenopus laevis oocytes expressing NaV1.5. To be noted: for inhibition at 100 µM: read-out: Maximum % inhibition NaV1.5.
The next assay deals with mNaV1.6 (Mus musculus, UniProt Q9WTU3). In words: Two-electrode voltage-clamp on Xenopus laevis oocytes expressing NaV1.6. To be noted: for inhibition at 100 µM: read-out: Maximum % inhibition NaV1.6, peptide at 100 μM.
Sequence of mNaV1.6 (Q9WTU3 whole entry): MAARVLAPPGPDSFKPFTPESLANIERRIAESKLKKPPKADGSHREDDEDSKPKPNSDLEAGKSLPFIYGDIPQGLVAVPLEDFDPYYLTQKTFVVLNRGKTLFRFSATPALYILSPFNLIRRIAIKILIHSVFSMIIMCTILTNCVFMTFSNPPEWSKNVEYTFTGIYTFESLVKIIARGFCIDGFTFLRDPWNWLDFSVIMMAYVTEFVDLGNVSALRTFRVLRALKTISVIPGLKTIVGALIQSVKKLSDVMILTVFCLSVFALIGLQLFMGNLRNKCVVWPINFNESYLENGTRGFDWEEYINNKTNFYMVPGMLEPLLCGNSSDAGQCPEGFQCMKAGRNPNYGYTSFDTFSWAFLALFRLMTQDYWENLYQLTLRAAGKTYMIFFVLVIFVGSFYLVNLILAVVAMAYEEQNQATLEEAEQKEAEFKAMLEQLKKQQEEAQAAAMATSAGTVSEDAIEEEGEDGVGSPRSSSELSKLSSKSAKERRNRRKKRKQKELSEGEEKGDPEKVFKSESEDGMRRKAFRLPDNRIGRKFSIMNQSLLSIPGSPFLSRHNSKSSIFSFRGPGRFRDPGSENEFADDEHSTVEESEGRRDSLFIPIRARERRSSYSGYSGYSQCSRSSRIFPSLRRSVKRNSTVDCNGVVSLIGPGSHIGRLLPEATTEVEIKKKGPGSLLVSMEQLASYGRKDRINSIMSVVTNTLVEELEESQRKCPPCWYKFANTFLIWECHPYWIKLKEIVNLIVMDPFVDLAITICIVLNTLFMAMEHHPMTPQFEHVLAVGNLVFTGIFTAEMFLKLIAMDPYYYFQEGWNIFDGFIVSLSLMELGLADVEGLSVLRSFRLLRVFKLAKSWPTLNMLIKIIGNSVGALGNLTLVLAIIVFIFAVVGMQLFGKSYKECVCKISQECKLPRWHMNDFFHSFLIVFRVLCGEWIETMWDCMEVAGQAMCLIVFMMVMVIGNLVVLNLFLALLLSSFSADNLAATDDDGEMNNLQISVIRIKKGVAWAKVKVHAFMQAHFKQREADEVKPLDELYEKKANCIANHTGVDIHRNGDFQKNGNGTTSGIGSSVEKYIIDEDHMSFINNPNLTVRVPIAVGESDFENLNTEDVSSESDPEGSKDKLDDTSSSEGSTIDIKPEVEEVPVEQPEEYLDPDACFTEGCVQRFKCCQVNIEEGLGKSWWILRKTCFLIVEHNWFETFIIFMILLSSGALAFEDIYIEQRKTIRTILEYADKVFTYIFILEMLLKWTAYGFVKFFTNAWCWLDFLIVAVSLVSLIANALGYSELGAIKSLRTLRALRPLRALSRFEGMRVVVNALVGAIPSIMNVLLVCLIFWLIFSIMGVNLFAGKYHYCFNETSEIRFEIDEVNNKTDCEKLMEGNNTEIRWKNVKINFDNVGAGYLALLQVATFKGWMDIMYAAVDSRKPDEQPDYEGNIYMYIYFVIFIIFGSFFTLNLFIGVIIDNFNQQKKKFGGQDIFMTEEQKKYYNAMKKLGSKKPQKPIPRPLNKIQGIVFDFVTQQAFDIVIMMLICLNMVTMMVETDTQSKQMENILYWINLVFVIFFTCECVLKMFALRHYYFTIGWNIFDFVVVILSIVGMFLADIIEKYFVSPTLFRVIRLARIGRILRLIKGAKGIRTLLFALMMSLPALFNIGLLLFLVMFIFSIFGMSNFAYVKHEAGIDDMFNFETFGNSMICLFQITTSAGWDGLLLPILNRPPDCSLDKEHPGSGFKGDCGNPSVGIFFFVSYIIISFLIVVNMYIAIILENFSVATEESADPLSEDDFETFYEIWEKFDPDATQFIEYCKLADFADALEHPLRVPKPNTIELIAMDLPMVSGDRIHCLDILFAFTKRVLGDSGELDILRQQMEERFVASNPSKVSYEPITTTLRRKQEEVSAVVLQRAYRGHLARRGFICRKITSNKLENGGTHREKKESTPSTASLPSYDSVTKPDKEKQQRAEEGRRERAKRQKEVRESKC
The target in another assay is rNaV1.8 (Rattus norvegicus, UniProt Q62968). In words: Two-electrode voltage-clamp on Xenopus laevis oocytes expressing NaV1.8. To be noted: for inhibition at 100 µM: read-out: Maximum % inhibition NaV1.8.
Sequence of rNaV1.8 (Q62968 whole entry): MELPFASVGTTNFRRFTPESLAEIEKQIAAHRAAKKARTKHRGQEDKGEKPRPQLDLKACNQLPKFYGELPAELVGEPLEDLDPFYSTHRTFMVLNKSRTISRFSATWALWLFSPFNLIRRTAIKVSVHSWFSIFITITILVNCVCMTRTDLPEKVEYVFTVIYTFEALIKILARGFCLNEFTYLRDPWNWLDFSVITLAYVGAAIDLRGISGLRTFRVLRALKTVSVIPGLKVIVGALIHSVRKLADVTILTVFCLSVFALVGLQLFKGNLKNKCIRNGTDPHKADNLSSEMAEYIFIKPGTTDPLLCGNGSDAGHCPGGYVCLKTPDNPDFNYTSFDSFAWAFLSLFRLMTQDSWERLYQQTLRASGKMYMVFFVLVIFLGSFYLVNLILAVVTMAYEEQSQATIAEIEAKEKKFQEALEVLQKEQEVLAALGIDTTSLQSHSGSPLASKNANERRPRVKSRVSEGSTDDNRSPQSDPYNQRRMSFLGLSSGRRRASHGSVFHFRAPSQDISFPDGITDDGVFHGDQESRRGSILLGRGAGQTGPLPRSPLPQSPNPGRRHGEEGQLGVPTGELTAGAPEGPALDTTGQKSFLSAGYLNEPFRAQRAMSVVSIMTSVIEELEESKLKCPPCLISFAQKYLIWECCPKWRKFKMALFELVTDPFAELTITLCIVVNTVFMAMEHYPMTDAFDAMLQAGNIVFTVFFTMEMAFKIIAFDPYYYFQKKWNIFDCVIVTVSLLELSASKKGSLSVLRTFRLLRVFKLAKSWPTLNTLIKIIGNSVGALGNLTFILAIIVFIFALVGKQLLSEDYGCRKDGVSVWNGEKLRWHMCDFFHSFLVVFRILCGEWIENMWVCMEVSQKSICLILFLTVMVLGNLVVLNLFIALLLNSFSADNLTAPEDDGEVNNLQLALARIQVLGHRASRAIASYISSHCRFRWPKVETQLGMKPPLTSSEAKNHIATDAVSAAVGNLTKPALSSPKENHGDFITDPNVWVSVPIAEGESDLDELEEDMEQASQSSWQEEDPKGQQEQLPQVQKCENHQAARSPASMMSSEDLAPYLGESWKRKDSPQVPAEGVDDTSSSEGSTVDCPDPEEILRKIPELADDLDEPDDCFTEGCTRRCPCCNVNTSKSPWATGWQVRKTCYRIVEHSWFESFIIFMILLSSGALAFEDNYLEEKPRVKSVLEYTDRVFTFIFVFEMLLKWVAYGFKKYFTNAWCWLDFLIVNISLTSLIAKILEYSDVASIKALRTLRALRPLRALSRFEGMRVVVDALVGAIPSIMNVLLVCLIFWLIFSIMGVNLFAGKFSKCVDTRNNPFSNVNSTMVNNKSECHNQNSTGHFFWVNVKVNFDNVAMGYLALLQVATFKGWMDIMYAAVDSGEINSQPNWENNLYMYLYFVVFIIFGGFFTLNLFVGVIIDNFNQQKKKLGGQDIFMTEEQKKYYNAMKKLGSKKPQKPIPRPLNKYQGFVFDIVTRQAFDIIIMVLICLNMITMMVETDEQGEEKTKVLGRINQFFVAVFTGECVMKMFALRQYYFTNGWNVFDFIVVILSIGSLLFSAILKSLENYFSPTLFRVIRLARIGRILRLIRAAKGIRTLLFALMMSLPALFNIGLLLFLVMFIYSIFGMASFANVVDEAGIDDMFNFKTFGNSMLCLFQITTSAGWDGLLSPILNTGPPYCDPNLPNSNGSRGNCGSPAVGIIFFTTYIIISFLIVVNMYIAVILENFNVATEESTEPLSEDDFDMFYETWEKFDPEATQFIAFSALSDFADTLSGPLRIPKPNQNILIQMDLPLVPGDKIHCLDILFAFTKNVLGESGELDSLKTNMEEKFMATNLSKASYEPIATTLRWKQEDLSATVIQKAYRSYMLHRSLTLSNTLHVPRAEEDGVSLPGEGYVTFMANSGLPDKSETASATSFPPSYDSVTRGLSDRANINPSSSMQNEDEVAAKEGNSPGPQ

Where a SMILES comes first, the peptide text is derived from it. Bridges are numbered along the chain shown (N, C = ends).

For orientation: IC50 means the concentration needed to halve the response being measured. A lower IC50 goes with higher potency. One may read the inhibition as the relative decrease from the control value, in per cent. Take `C[C@@H]1NC(=O)[C@H](Cc2c[nH]c3ccccc23)NC(=O)[C@H](C)NC(=O)[C@H](CCCNC(=N)N)NC(=O)[C@@H](N)CSSC[C@@H](C(N)=O)NC(=O)[C@H](CCCNC(=N)N)NC(=O)[C@H](CC(N)=O)NC(=O)[C@H](Cc2c[nH]c3ccccc23)NC(=O)[C@H](CCCNC(=N)N)NC1=O` [PnCS1[R3A], CRAWARWNRC ^*] (H-CRAWARWNRC-NH2; disulfide 1-10): the IC50 against rNaV1.2 was 1.8 ± 0.3 µM; at rNaV1.4 it was 1.6 ± 0.5 µM; at hNaV1.5 it was greater than 100 µM; on mNaV1.6 it was 1.9 ± 0.4 µM; against rNaV1.8, greater than 100 µM. Besides, the inhibition at 100 µM was 86% on rNaV1.2; 89% at rNaV1.4; 51% on hNaV1.5; 87% at mNaV1.6; 0% on rNaV1.8.

Take `C[C@@H]1NC(=O)[C@H](Cc2c[nH]c3ccccc23)NC(=O)[C@H](CCC(=O)O)NC(=O)[C@H](CCCNC(=N)N)NC(=O)[C@@H](N)CSSC[C@@H](C(N)=O)NC(=O)[C@H](CCCNC(=N)N)NC(=O)[C@H](CC(N)=O)NC(=O)[C@H](Cc2c[nH]c3ccccc23)NC(=O)[C@H](CCCNC(=N)N)NC1=O` [PnCS1[R3E], CREWARWNRC ^*] (H-CREWARWNRC-NH2; disulfide 1-10): the half-maximal inhibitory concentration (IC50) against rNaV1.2, at rNaV1.4, against hNaV1.5, against mNaV1.6 and against rNaV1.8 was greater than 100 µM throughout. The inhibition at 100 µM on rNaV1.2 turned out to be 52%; at rNaV1.4, 36%; on hNaV1.5, 21%; on mNaV1.6, 24%; at rNaV1.8, 0%.

Regarding `C[C@@H]1NC(=O)[C@H](Cc2c[nH]c3ccccc23)NC(=O)[C@H](CCCCN)NC(=O)[C@H](CCCNC(=N)N)NC(=O)[C@@H](N)CSSC[C@@H](C(N)=O)NC(=O)[C@H](CCCNC(=N)N)NC(=O)[C@H](CC(N)=O)NC(=O)[C@H](Cc2c[nH]c3ccccc23)NC(=O)[C@H](CCCNC(=N)N)NC1=O` [PnCS1[R3K], CRKWARWNRC ^*] (H-CRKWARWNRC-NH2; disulfide 1-10), the concentration for half-maximal inhibition (IC50) at rNaV1.2 is 0.8 ± 0.3 µM; against rNaV1.4, 0.6 ± 0.3 µM; on hNaV1.5, 2.7 ± 0.6 µM; against mNaV1.6, 0.8 ± 0.3 µM; against rNaV1.8, greater than 100 µM. Further, on rNaV1.2 (peptide at 100 μM, 100 µM), the “Maximum % inhibition NaV1.2” value came out at 96%. Further, the inhibition at 100 µM at rNaV1.2 is greater than 95%; on rNaV1.4, 92%; at hNaV1.5, 94%; on mNaV1.6 it was 86%; at rNaV1.8 it was 0%.

On to `C[C@@H]1NC(=O)[C@H](C)NC(=O)[C@H](Cc2c[nH]c3ccccc23)NC(=O)[C@H](CCCNC(=N)N)NC(=O)[C@H](CCCNC(=N)N)NC(=O)[C@@H](N)CSSC[C@@H](C(N)=O)NC(=O)[C@H](CCCNC(=N)N)NC(=O)[C@H](CC(N)=O)NC(=O)[C@H](Cc2c[nH]c3ccccc23)NC1=O` [PnCS1[R6A], CRRWAAWNRC ^*] (H-CRRWAAWNRC-NH2; disulfide 1-10), for which the half-maximal inhibitory concentration (IC50) against rNaV1.2 was 9.2 ± 1.1 µM; against rNaV1.4, 0.5 ± 0.2 µM; against hNaV1.5, 7.6 ± 2.2 µM; against mNaV1.6, 0.9 ± 0.2 µM; against rNaV1.8, greater than 100 µM. Moreover, the inhibition at 100 µM on rNaV1.2 is 73%; at rNaV1.4 it was greater than 95%; on hNaV1.5, 78%; on mNaV1.6, greater than 95%; at rNaV1.8 it was 0%. Besides, on rNaV1.4, the “Maximum % inhibition NaV1.4” value is 90%. Also, on mNaV1.6 (peptide at 100 μM, 100 µM), the “Maximum % inhibition NaV1.6” value came to 96%.

With `C[C@@H]1NC(=O)[C@H](Cc2c[nH]c3ccccc23)NC(=O)[C@H](CCCNC(=N)N)NC(=O)[C@H](CCCNC(=N)N)NC(=O)[C@@H](N)CSSC[C@@H](C(N)=O)NC(=O)[C@H](CCCNC(=N)N)NC(=O)[C@H](CC(N)=O)NC(=O)[C@H](Cc2c[nH]c3ccccc23)NC(=O)[C@H](CCCCN)NC1=O` [PnCS1[R6K], CRRWAKWNRC ^*] (H-CRRWAKWNRC-NH2; disulfide 1-10), the IC50 was 8.7 ± 2.4 µM on rNaV1.2; 0.6 ± 0.4 µM at rNaV1.4; 3.3 ± 1.5 µM against hNaV1.5; 0.9 ± 0.3 µM on mNaV1.6; greater than 100 µM against rNaV1.8. Besides, the inhibition at 100 µM was 67% at rNaV1.2; 94% on rNaV1.4; 89% on hNaV1.5; 88% on mNaV1.6; 0% at rNaV1.8.

Turning to `C[C@@H]1NC(=O)[C@H](CC(N)=O)NC(=O)[C@H](Cc2c[nH]c3ccccc23)NC(=O)[C@H](CCCNC(=N)N)NC(=O)[C@H](C)NC(=O)[C@H](Cc2c[nH]c3ccccc23)NC(=O)[C@H](CCCNC(=N)N)NC(=O)[C@H](CCCNC(=N)N)NC(=O)[C@@H](N)CSSC[C@@H](C(N)=O)NC1=O` [PnCS1[R9A], CRRWARWNAC ^*] (H-CRRWARWNAC-NH2; disulfide 1-10), the IC50 was 6.7 ± 1.2 µM against rNaV1.2; 1.1 ± 0.3 µM against rNaV1.4; 9.2 ± 4.6 µM against hNaV1.5; 0.9 ± 0.4 µM against mNaV1.6; greater than 100 µM against rNaV1.8. Further, the inhibition at 100 µM at rNaV1.2 was 80%; at rNaV1.4, 86%; at hNaV1.5, 72%; on mNaV1.6, 79%; at rNaV1.8, 0%.

Consider `C[C@@H]1NC(=O)[C@H](Cc2c[nH]c3ccccc23)NC(=O)[C@H](CCCNC(=N)N)NC(=O)[C@H](CCCNC(=N)N)NC(=O)[C@@H](N)CSSC[C@@H](C(N)=O)NC(=O)[C@H](CCC(=O)O)NC(=O)[C@H](CC(N)=O)NC(=O)[C@H](Cc2c[nH]c3ccccc23)NC(=O)[C@H](CCCNC(=N)N)NC1=O` [PnCS1[R9E], CRRWARWNEC ^*] (H-CRRWARWNEC-NH2; disulfide 1-10), for which the half-inhibitory concentration (IC50) against rNaV1.2, on rNaV1.4, on hNaV1.5, on mNaV1.6 and on rNaV1.8 was greater than 100 µM throughout. Moreover, the inhibition at 100 µM amounted to 49% at rNaV1.2; 0% on rNaV1.4; 40% on hNaV1.5; 11% on mNaV1.6; 0% on rNaV1.8.

Consider `C[C@@H]1NC(=O)[C@H](Cc2c[nH]c3ccccc23)NC(=O)[C@H](CCCNC(=N)N)NC(=O)[C@H](CCCNC(=N)N)NC(=O)[C@@H](N)CSSC[C@@H](C(N)=O)NC(=O)[C@H](CCCCN)NC(=O)[C@H](CC(N)=O)NC(=O)[C@H](Cc2c[nH]c3ccccc23)NC(=O)[C@H](CCCNC(=N)N)NC1=O` [PnCS1[R9K], CRRWARWNKC ^*] (H-CRRWARWNKC-NH2; disulfide 1-10), for which the IC50 was 10.2 ± 4.3 µM against rNaV1.2; 6.1 ± 2.1 µM against rNaV1.4; 9.2 ± 0.6 µM at hNaV1.5; 6.7 ± 0.8 µM on mNaV1.6; greater than 100 µM on rNaV1.8. For the same compound, the inhibition at 100 µM is 62% at rNaV1.2; 66% at rNaV1.4; 67% at hNaV1.5; 72% on mNaV1.6; 0% at rNaV1.8.

With `C[C@@H]1NC(=O)[C@H](C)NC(=O)[C@H](CCCNC(=N)N)NC(=O)[C@H](CCCNC(=N)N)NC(=O)[C@@H](N)CSSC[C@@H](C(N)=O)NC(=O)[C@H](CCCNC(=N)N)NC(=O)[C@H](CC(N)=O)NC(=O)[C@H](Cc2c[nH]c3ccccc23)NC(=O)[C@H](CCCNC(=N)N)NC1=O` [PnCS1[W4A], CRRAARWNRC ^*] (H-CRRAARWNRC-NH2; disulfide 1-10), the IC50 against rNaV1.2 is 0.8 ± 0.3 µM; against rNaV1.4, 0.7 ± 0.3 µM; against hNaV1.5 it was 3.4 ± 0.2 µM; at mNaV1.6 it was 1.2 ± 0.3 µM; at rNaV1.8, greater than 100 µM. Further, the inhibition at 100 µM is 89% on rNaV1.2; 95% at rNaV1.4; 82% at hNaV1.5; 76% on mNaV1.6; 0% at rNaV1.8.

In the case of `C[C@@H]1NC(=O)[C@H](CCC(=O)O)NC(=O)[C@H](CCCNC(=N)N)NC(=O)[C@H](CCCNC(=N)N)NC(=O)[C@@H](N)CSSC[C@@H](C(N)=O)NC(=O)[C@H](CCCNC(=N)N)NC(=O)[C@H](CC(N)=O)NC(=O)[C@H](Cc2c[nH]c3ccccc23)NC(=O)[C@H](CCCNC(=N)N)NC1=O` [PnCS1[W4E], CRREARWNRC ^*] (H-CRREARWNRC-NH2; disulfide 1-10), the IC50 against rNaV1.2 is 13.2 ± 5.2 µM; at rNaV1.4 it was 12.8 ± 4.1 µM; against hNaV1.5, greater than 100 µM; against mNaV1.6, 14.8 ± 3.9 µM; against rNaV1.8, greater than 100 µM. For the same compound, the inhibition at 100 µM on rNaV1.2 was 72%; on rNaV1.4, 59%; at hNaV1.5 it was 34%; on mNaV1.6, 67%; on rNaV1.8, 0%.

On to `C[C@@H]1NC(=O)[C@H](CCCNC(=N)N)NC(=O)[C@H](C)NC(=O)[C@H](Cc2c[nH]c3ccccc23)NC(=O)[C@H](CCCNC(=N)N)NC(=O)[C@H](CCCNC(=N)N)NC(=O)[C@@H](N)CSSC[C@@H](C(N)=O)NC(=O)[C@H](CCCNC(=N)N)NC(=O)[C@H](CC(N)=O)NC1=O` [PnCS1[W7A], CRRWARANRC ^*] (H-CRRWARANRC-NH2; disulfide 1-10), for which the 50% inhibitory concentration (IC50) against rNaV1.2 is 0.8 ± 0.3 µM; against rNaV1.4, 1.1 ± 0.4 µM; at hNaV1.5 it was 6.8 ± 1.3 µM; against mNaV1.6, 11.4 ± 3.6 µM; against rNaV1.8, greater than 100 µM. Besides, the inhibition at 100 µM is 92% on rNaV1.2; greater than 95% at rNaV1.4; 78% on hNaV1.5; 57% at mNaV1.6; 0% on rNaV1.8. Further, the “Maximum % inhibition NaV1.4” value at rNaV1.4 was 96%.
